According to US20230017045A1, “PYRIDINE AND PYRIMIDINE CARBOXYLATE HERBICIDES AND METHODS OF USE THEREOF” (Dow AgroSciences LLC, priority 2017, published 2023):

test system: test plant species; assay: Post-emergent herbicidal activity test (greenhouse, foliar spray, visual growth reduction); format: in vivo; conditions: post-emergence, 336 h, ECHCG: barnyardgrass (Echinochloa crus-galli), 140 g ai/ha, 14 days after application, read-out: Visual Growth Reduction (%) 14 Days After Application, ECHCG
Procedure, shortened: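 Scoring used a 0 to 100 percent visual scale of growth reduction against solvent-treated controls, read 14 d after spraying. Applications went onto plants at first or second true leaf stage, 187 L/ha, with crop oil concentrate and X-77 surfactant in the carrier. Post-treatment watering was by subirrigation to avoid wash-off.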

Structure (SMILES) | pest or weed control at 140 g/ha
O=C(O)c1nc(-c2cc(Br)c(C(F)(F)F)cc2Cl)ccc1Cl [F349, 6-(5-Bromo-2-chloro-4-(trifluoromethyl)phenyl)-3-chloropicolinic acid] | 0 to 29%
COC(=O)c1nc(-c2cc(F)c(C(F)(F)F)cc2F)c(Cl)cc1Cl [F325, Methyl 3,5-dichloro-6-(2,5-difluoro-4-(trifluoromethyl)phenyl)picolinate] | 0 to 29%
COC(=O)c1nc(-c2ccc(O)cc2Cl)ccc1Cl [F355, methyl 3-chloro-6-(2-chloro-4-hydroxyphenyl)picolinate] | 0 to 29%

same assay, conditions: post-emergence, 336 h, IPOHE: ivy-leaf morning glory (Ipomoea hederacea), 140 g ai/ha, 14 days after application, read-out: Visual Growth Reduction (%) 14 Days After Application, IPOHE

Structure (SMILES) | pest or weed control at 140 g/ha
O=C(O)c1nc(-c2cc(Br)c(C(F)(F)F)cc2Cl)ccc1Cl [F349, 6-(5-Bromo-2-chloro-4-(trifluoromethyl)phenyl)-3-chloropicolinic acid] | 95 to 100%
COC(=O)c1nc(-c2cc(F)c(C(F)(F)F)cc2F)c(Cl)cc1Cl [F325, Methyl 3,5-dichloro-6-(2,5-difluoro-4-(trifluoromethyl)phenyl)picolinate] | 95 to 100%
COC(=O)c1nc(-c2ccc(O)cc2Cl)ccc1Cl [F355, methyl 3-chloro-6-(2-chloro-4-hydroxyphenyl)picolinate] | 0 to 29%

same assay, conditions: post-emergence, 336 h, KCHSC: kochia (Bassia scoparia), 140 g ai/ha, 14 days after application, read-out: Visual Growth Reduction (%) 14 Days After Application, KCHSC

Structure (SMILES) | pest or weed control at 140 g/ha
O=C(O)c1nc(-c2cc(Br)c(C(F)(F)F)cc2Cl)ccc1Cl [F349, 6-(5-Bromo-2-chloro-4-(trifluoromethyl)phenyl)-3-chloropicolinic acid] | 85 to 94%
COC(=O)c1nc(-c2cc(F)c(C(F)(F)F)cc2F)c(Cl)cc1Cl [F325, Methyl 3,5-dichloro-6-(2,5-difluoro-4-(trifluoromethyl)phenyl)picolinate] | 0 to 29%
COC(=O)c1nc(-c2ccc(O)cc2Cl)ccc1Cl [F355, methyl 3-chloro-6-(2-chloro-4-hydroxyphenyl)picolinate] | 0 to 29%

same assay, conditions: post-emergence, 336 h, ORYSA: rice (Oryza sativa), 140 g ai/ha, 14 days after application, read-out: Visual Growth Reduction (%) 14 Days After Application, ORYSA

Structure (SMILES) | pest or weed control at 140 g/ha
O=C(O)c1nc(-c2cc(Br)c(C(F)(F)F)cc2Cl)ccc1Cl [F349, 6-(5-Bromo-2-chloro-4-(trifluoromethyl)phenyl)-3-chloropicolinic acid] | 0 to 29%
COC(=O)c1nc(-c2cc(F)c(C(F)(F)F)cc2F)c(Cl)cc1Cl [F325, Methyl 3,5-dichloro-6-(2,5-difluoro-4-(trifluoromethyl)phenyl)picolinate] | 0 to 29%
COC(=O)c1nc(-c2ccc(O)cc2Cl)ccc1Cl [F355, methyl 3-chloro-6-(2-chloro-4-hydroxyphenyl)picolinate] | 0 to 29%

same assay, conditions: post-emergence, 336 h, SETFA: giant foxtail (Setaria faberi), 140 g ai/ha, 14 days after application, read-out: Visual Growth Reduction (%) 14 Days After Application, SETFA

Structure (SMILES) | pest or weed control at 140 g/ha
O=C(O)c1nc(-c2cc(Br)c(C(F)(F)F)cc2Cl)ccc1Cl [F349, 6-(5-Bromo-2-chloro-4-(trifluoromethyl)phenyl)-3-chloropicolinic acid] | 75 to 84%
COC(=O)c1nc(-c2cc(F)c(C(F)(F)F)cc2F)c(Cl)cc1Cl [F325, Methyl 3,5-dichloro-6-(2,5-difluoro-4-(trifluoromethyl)phenyl)picolinate] | 30 to 44%
COC(=O)c1nc(-c2ccc(O)cc2Cl)ccc1Cl [F355, methyl 3-chloro-6-(2-chloro-4-hydroxyphenyl)picolinate] | 0 to 29%

same assay, conditions: post-emergence, 336 h, SORVU: grain sorghum (Sorghum vulgare), 140 g ai/ha, 14 days after application, read-out: Visual Growth Reduction (%) 14 Days After Application, SORVU

Structure (SMILES) | pest or weed control at 140 g/ha
O=C(O)c1nc(-c2cc(Br)c(C(F)(F)F)cc2Cl)ccc1Cl [F349, 6-(5-Bromo-2-chloro-4-(trifluoromethyl)phenyl)-3-chloropicolinic acid] | 85 to 94%
COC(=O)c1nc(-c2cc(F)c(C(F)(F)F)cc2F)c(Cl)cc1Cl [F325, Methyl 3,5-dichloro-6-(2,5-difluoro-4-(trifluoromethyl)phenyl)picolinate] | 85 to 94%
COC(=O)c1nc(-c2ccc(O)cc2Cl)ccc1Cl [F355, methyl 3-chloro-6-(2-chloro-4-hydroxyphenyl)picolinate] | 0 to 29%

same assay, conditions: post-emergence, 336 h, STEME: common chickweed (Stellaria media), 140 g ai/ha, 14 days after application, read-out: Visual Growth Reduction (%) 14 Days After Application, STEME

Structure (SMILES) | pest or weed control at 140 g/ha
O=C(O)c1nc(-c2cc(Br)c(C(F)(F)F)cc2Cl)ccc1Cl [F349, 6-(5-Bromo-2-chloro-4-(trifluoromethyl)phenyl)-3-chloropicolinic acid] | 0 to 29%
COC(=O)c1nc(-c2cc(F)c(C(F)(F)F)cc2F)c(Cl)cc1Cl [F325, Methyl 3,5-dichloro-6-(2,5-difluoro-4-(trifluoromethyl)phenyl)picolinate] | 0 to 29%
COC(=O)c1nc(-c2ccc(O)cc2Cl)ccc1Cl [F355, methyl 3-chloro-6-(2-chloro-4-hydroxyphenyl)picolinate] | 0 to 29%

same assay, conditions: post-emergence, 336 h, TRZAS: wheat, spring (Triticum aestivum), 140 g ai/ha, 14 days after application, read-out: Visual Growth Reduction (%) 14 Days After Application, TRZAS

Structure (SMILES) | pest or weed control at 140 g/ha
O=C(O)c1nc(-c2cc(Br)c(C(F)(F)F)cc2Cl)ccc1Cl [F349, 6-(5-Bromo-2-chloro-4-(trifluoromethyl)phenyl)-3-chloropicolinic acid] | 85 to 94%
COC(=O)c1nc(-c2cc(F)c(C(F)(F)F)cc2F)c(Cl)cc1Cl [F325, Methyl 3,5-dichloro-6-(2,5-difluoro-4-(trifluoromethyl)phenyl)picolinate] | 0 to 29%
COC(=O)c1nc(-c2ccc(O)cc2Cl)ccc1Cl [F355, methyl 3-chloro-6-(2-chloro-4-hydroxyphenyl)picolinate] | 0 to 29%

same assay, conditions: post-emergence, 336 h, blackgrass (Alopecurus myosuroides), 14 Days After Application, 140 g ai/ha, read-out: Visual Growth Reduction (%) ALOMY

Structure (SMILES) | pest or weed control at 140 g/ha
O=C(O)c1nc(-c2cc(Br)c(C(F)(F)F)cc2Cl)ccc1Cl [F349, 6-(5-Bromo-2-chloro-4-(trifluoromethyl)phenyl)-3-chloropicolinic acid] | 60 to 74%
COC(=O)c1nc(-c2cc(F)c(C(F)(F)F)cc2F)c(Cl)cc1Cl [F325, Methyl 3,5-dichloro-6-(2,5-difluoro-4-(trifluoromethyl)phenyl)picolinate] | 0 to 29%
COC(=O)c1nc(-c2ccc(O)cc2Cl)ccc1Cl [F355, methyl 3-chloro-6-(2-chloro-4-hydroxyphenyl)picolinate] | 0 to 29%

same assay, conditions: post-emergence, 336 h, canada thistle (Cirsium arvense), 14 Days After Application, 140 g ai/ha, read-out: Visual Growth Reduction (%) CIRAR

Structure (SMILES) | pest or weed control at 140 g/ha
COC(=O)c1nc(-c2cc(F)c(C(F)(F)F)cc2F)c(Cl)cc1Cl [F325, Methyl 3,5-dichloro-6-(2,5-difluoro-4-(trifluoromethyl)phenyl)picolinate] | 85 to 94%
COC(=O)c1nc(-c2ccc(O)cc2Cl)ccc1Cl [F355, methyl 3-chloro-6-(2-chloro-4-hydroxyphenyl)picolinate] | 75 to 84%

same assay, conditions: post-emergence, 336 h, crabgrass (Digitaria sanguinalis), 14 Days After Application, 140 g ai/ha, read-out: Visual Growth Reduction (%) DIGSA

Structure (SMILES) | pest or weed control at 140 g/ha
O=C(O)c1nc(-c2cc(Br)c(C(F)(F)F)cc2Cl)ccc1Cl [F349, 6-(5-Bromo-2-chloro-4-(trifluoromethyl)phenyl)-3-chloropicolinic acid] | 75 to 84%
COC(=O)c1nc(-c2cc(F)c(C(F)(F)F)cc2F)c(Cl)cc1Cl [F325, Methyl 3,5-dichloro-6-(2,5-difluoro-4-(trifluoromethyl)phenyl)picolinate] | 75 to 84%
COC(=O)c1nc(-c2ccc(O)cc2Cl)ccc1Cl [F355, methyl 3-chloro-6-(2-chloro-4-hydroxyphenyl)picolinate] | 0 to 29%

same assay, conditions: post-emergence, 336 h, lambsquarters (Chenopodium album), 14 Days After Application, 140 g ai/ha, read-out: Visual Growth Reduction (%) CHEAL

Structure (SMILES) | pest or weed control at 140 g/ha
O=C(O)c1nc(-c2cc(Br)c(C(F)(F)F)cc2Cl)ccc1Cl [F349, 6-(5-Bromo-2-chloro-4-(trifluoromethyl)phenyl)-3-chloropicolinic acid] | 95 to 100%
COC(=O)c1nc(-c2cc(F)c(C(F)(F)F)cc2F)c(Cl)cc1Cl [F325, Methyl 3,5-dichloro-6-(2,5-difluoro-4-(trifluoromethyl)phenyl)picolinate] | 95 to 100%
COC(=O)c1nc(-c2ccc(O)cc2Cl)ccc1Cl [F355, methyl 3-chloro-6-(2-chloro-4-hydroxyphenyl)picolinate] | 0 to 29%

same assay, conditions: post-emergence, 336 h, redroot pigweed (Amaranthus retroflexus), 14 Days After Application, 140 g ai/ha, read-out: Visual Growth Reduction (%) AMARE

Structure (SMILES) | pest or weed control at 140 g/ha
O=C(O)c1nc(-c2cc(Br)c(C(F)(F)F)cc2Cl)ccc1Cl [F349, 6-(5-Bromo-2-chloro-4-(trifluoromethyl)phenyl)-3-chloropicolinic acid] | 60 to 74%
COC(=O)c1nc(-c2cc(F)c(C(F)(F)F)cc2F)c(Cl)cc1Cl [F325, Methyl 3,5-dichloro-6-(2,5-difluoro-4-(trifluoromethyl)phenyl)picolinate] | 60 to 74%
COC(=O)c1nc(-c2ccc(O)cc2Cl)ccc1Cl [F355, methyl 3-chloro-6-(2-chloro-4-hydroxyphenyl)picolinate] | 0 to 29%

same assay, conditions: post-emergence, 336 h, wild oat (Avena fatua), 14 Days After Application, 140 g ai/ha, read-out: Visual Growth Reduction (%) AVEFA

Structure (SMILES) | pest or weed control at 140 g/ha
O=C(O)c1nc(-c2cc(Br)c(C(F)(F)F)cc2Cl)ccc1Cl [F349, 6-(5-Bromo-2-chloro-4-(trifluoromethyl)phenyl)-3-chloropicolinic acid] | 60 to 74%
COC(=O)c1nc(-c2cc(F)c(C(F)(F)F)cc2F)c(Cl)cc1Cl [F325, Methyl 3,5-dichloro-6-(2,5-difluoro-4-(trifluoromethyl)phenyl)picolinate] | 0 to 29%
COC(=O)c1nc(-c2ccc(O)cc2Cl)ccc1Cl [F355, methyl 3-chloro-6-(2-chloro-4-hydroxyphenyl)picolinate] | 0 to 29%

same assay, conditions: post-emergence, 336 h, yellow nutsedge (Cyperus esculentus), 14 Days After Application, 140 g ai/ha, read-out: Visual Growth Reduction (%) CYPES

Structure (SMILES) | pest or weed control at 140 g/ha
O=C(O)c1nc(-c2cc(Br)c(C(F)(F)F)cc2Cl)ccc1Cl [F349, 6-(5-Bromo-2-chloro-4-(trifluoromethyl)phenyl)-3-chloropicolinic acid] | 0 to 29%
COC(=O)c1nc(-c2cc(F)c(C(F)(F)F)cc2F)c(Cl)cc1Cl [F325, Methyl 3,5-dichloro-6-(2,5-difluoro-4-(trifluoromethyl)phenyl)picolinate] | 0 to 29%
COC(=O)c1nc(-c2ccc(O)cc2Cl)ccc1Cl [F355, methyl 3-chloro-6-(2-chloro-4-hydroxyphenyl)picolinate] | 0 to 29%
